Test results as given in patent US7534436B2, “Peptide fragments of the harp factor inhibiting angiogenesis” (Centre National de la Recherche Scientifique (C.N.R.S.), priority 2002, dated 2009).
Where a SMILES comes first, the peptide text is derived from it.

B1: HARP: angiogenic heparin binding growth factor, mature protein of 136 or 139 amino acids (protein, UniProt P21246 33-168, looked up)
Pleiotrophin: GKKEKPEKKVKKSDCGEWQWSVCVPTSGDCGLGTREGTRTGAECKQTMKTQRCKIPCNWKKQFGAECKYQFQAWGECDLNTALKTRTGSLKRALHNAECQKTVTISKPCGKLTKPKPQAESKKKKKEGKKQEKMLD

How the values were obtained:
[1] = test system: endothelial cells which have invaded the Matrigel; experiment: In vivo Matrigel angiogenesis model, substance used alone; design: species or system Swiss mice; settings: day 7; for effect on angiogenesis when peptide used alone: peptide 1 μM alone in Matrigel; for increase in the number of endothelial cells by comparison with Matrigel used by itself: HARP 5 nM or FGF-2 10 nM in Matrigel
Description: (§1) FIG. 6 represents the inhibition by the HARP peptides 13-39 and 65-97 of the angiogenesis induced by HARP in an in vivo model. Three hundred microlitres of Matrigel® incubated with 5 nM of HARP in the presence or absence of the HARP peptides 13-39 and 65-97 used at a concentration of 1 μM are injected subcutaneously into a mouse. The control of the experiment is achieved using FGF-2. Seven days later the mice are sacrificed and the Matrigel® is removed. Sections having a thickness of 8 μM are produced. The sections are then stained with Trichrome from Gomori. The number of cells which have invaded the Matrigel® is quantified by image analysis with NIH software. The results represent the mean value of an analysis of 7 sections per mouse (n=4 mice/group). The bars represent the standard margins for error (**, p<0.01).
This experiment was carried out using an in vivo angiogenesis model in mice. This experimental model consists in injecting Matrigel® containing a substance to be analysed for its angiogenesis stimulating or inhibiting properties. Four Swiss mice (Janvier, Genest St Isle, France) per group are injected with 300 μl of Matrigel® previously incubated with either 5 nM of HARP, 1 μM of HARP peptide 13-39 or 65-97, or with a mixture of HARP (5 nM) and HARP peptides 13-39 or 65-97 (1 μM). The control of the specificity of the inhibition is carried out using another angiogenic factor, FGF-2, tested either by itself at a concentration of 10 nM or supplemented by the HARP peptides 13-39 or 65-97 used at a concentration of 1 μM.
The mice are sacrificed seven days after the injection of the Matrigel®. This latter is removed and frozen in liquid nitrogen. Sections 8 μM thick are then effected with a cryostat. The sections are then stained with Trichrome from Gomori. The number of endothelial cells which have invaded the Matrigel® is quantified by image analysis using NIH imaging software.

[2] = test system: angiogenesis induced by FGF-2; experiment: In vivo Matrigel angiogenesis model, angiogenesis induced by FGF-2 (specificity control); design: species or system Swiss mice; settings: peptide 1 μM with FGF-2 10 nM in Matrigel; day 7
Description: as §1
(§2) This experiment was carried out using an in vivo angiogenesis model in mice. This experimental model consists in injecting Matrigel® containing a substance to be analysed for its angiogenesis stimulating or inhibiting properties. […]
(§3) The mice are sacrificed seven days after the injection of the Matrigel®. […] The number of endothelial cells which have invaded the Matrigel® is quantified by image analysis using NIH imaging software.

[3] = test system: NIH 3T3 cells stimulated by HARP; settings: 24 h, 10 μM
Description: After 24 hours' incubation the cellular proliferation is estimated by measurement of the tritiated thymidine incorporated by the cells.
Fibroblast cells of type NIH 3T3 are cultured at a density of 3×10^4 cells per cm^2 in DMEM culture medium supplemented with 10% of foetal calf serum. […] After this period of incubation, 0.5 μCi of [methyl-^3H]thymidine is added and 6 hours afterwards the cells are fixed by a 10% solution of trichloroacetic acid. The radioactivity incorporated by the cells is then counted by liquid scintillation after having effected a cell lysis with a solution of sodium hydroxide at a concentration of 0.1 N.

[4] = test system: angiogenesis induced by HARP; experiment: In vivo Matrigel angiogenesis model, angiogenesis induced by HARP; design: species or system Swiss mice; settings: peptide 1 μM with HARP 5 nM in Matrigel, subcutaneous; day 7
Description: as §1, §2, §3

[5] = test system: PC3 cells (line resulting from prostate cancer); experiment: Tumour growth after injection of PC3 cells into nude mice; type: in vivo; settings: 5 mg/kg daily injection in the region of the tumour
Description: Two million PC3 cells are injected into groups of 5 nude mice treated or not by daily injection in the region of the tumour with PBS (control) or with the HARP peptide 111-136 at a concentration of 5 mg/kg. The tumour growth for each group of animals is evaluated by measurement of the size of the tumour on day 9, 13, 16, 20, 23 and 27.
The capacity of the peptide P111-136 (SEQ ID NO: 4) to inhibit tumour angiogenesis has been tested by inducing tumour growth by injection of PC3 cells into nude mice in the presence or absence of peptide P111-136. 2×10^6 PC3 cells are injected into groups of 5 nude mice (nude/nude, Laboratoire IFFA CREDO) treated or not by injection in the region of the tumour of 100 μl per day of a solution of PBS (control group) or by a solution of peptide P111-136 diluted in PBS at a concentration of 5 mg/kg. On day 9, 13, 16, 20, 23 and 27 the size of the tumour is measured with the aid of a calliper gauge. The results are presented in FIG. 3 and indicate that the HARP peptide 111-136 used at a dose of 5 mg per kg induces an inhibition of the growth of the tumours.

[6] = test system: endothelial cells in the tumour (PC3); experiment: Tumour angiogenesis in PC3 tumours of nude mice (isolectin B4 staining of endothelial cells, image analysis); type: in vivo; settings: day 27; 5 mg/kg daily injection in the region of the tumour
Description: Two million PC3 cells are injected into groups of mice treated or not by daily injection in the region of the tumour with PBS (control) or with the peptide 111-136 at a concentration of 5 mg/kg. The mice are sacrificed on day 27. The quantification of the angiogenesis is effected on a section after immunohistological analysis using isolectine Bandeiraea Simplicifolia as a specific marker of the endothelial cells and image analysis. The values presented in the histogram represent the mean value obtained by analysing three independent sections resulting from each of six tumours obtained in each condition.
On day 27, the tumours are removed and freezing sections of 5 μm are produced. […] This lectin is then detected by immunomarking with the aid of a sandwich of specific antibodies marked with alkaline phosphatase. After incubation with a substrate of alkaline phosphatase (Vector Red substrate), the endothelial cells are stained red. The quantification of the number of endothelial cells in the tumour is carried out by image analysis (NIH image) by analysing the 6 tumours on 3 independent sections of one and the same tumour.

[7] = Bernard-Pierrot et al 2002; cited from earlier work
[8] = molecular target: anaplastic lymphoma kinase (ALK) (Homo sapiens, UniProt Q9UM73); settings: high affinity tyrosine kinase receptor; Stoica et al, 2001; cited from earlier work
Sequence of anaplastic lymphoma kinase (ALK) (Q9UM73 19-1620, species assumed): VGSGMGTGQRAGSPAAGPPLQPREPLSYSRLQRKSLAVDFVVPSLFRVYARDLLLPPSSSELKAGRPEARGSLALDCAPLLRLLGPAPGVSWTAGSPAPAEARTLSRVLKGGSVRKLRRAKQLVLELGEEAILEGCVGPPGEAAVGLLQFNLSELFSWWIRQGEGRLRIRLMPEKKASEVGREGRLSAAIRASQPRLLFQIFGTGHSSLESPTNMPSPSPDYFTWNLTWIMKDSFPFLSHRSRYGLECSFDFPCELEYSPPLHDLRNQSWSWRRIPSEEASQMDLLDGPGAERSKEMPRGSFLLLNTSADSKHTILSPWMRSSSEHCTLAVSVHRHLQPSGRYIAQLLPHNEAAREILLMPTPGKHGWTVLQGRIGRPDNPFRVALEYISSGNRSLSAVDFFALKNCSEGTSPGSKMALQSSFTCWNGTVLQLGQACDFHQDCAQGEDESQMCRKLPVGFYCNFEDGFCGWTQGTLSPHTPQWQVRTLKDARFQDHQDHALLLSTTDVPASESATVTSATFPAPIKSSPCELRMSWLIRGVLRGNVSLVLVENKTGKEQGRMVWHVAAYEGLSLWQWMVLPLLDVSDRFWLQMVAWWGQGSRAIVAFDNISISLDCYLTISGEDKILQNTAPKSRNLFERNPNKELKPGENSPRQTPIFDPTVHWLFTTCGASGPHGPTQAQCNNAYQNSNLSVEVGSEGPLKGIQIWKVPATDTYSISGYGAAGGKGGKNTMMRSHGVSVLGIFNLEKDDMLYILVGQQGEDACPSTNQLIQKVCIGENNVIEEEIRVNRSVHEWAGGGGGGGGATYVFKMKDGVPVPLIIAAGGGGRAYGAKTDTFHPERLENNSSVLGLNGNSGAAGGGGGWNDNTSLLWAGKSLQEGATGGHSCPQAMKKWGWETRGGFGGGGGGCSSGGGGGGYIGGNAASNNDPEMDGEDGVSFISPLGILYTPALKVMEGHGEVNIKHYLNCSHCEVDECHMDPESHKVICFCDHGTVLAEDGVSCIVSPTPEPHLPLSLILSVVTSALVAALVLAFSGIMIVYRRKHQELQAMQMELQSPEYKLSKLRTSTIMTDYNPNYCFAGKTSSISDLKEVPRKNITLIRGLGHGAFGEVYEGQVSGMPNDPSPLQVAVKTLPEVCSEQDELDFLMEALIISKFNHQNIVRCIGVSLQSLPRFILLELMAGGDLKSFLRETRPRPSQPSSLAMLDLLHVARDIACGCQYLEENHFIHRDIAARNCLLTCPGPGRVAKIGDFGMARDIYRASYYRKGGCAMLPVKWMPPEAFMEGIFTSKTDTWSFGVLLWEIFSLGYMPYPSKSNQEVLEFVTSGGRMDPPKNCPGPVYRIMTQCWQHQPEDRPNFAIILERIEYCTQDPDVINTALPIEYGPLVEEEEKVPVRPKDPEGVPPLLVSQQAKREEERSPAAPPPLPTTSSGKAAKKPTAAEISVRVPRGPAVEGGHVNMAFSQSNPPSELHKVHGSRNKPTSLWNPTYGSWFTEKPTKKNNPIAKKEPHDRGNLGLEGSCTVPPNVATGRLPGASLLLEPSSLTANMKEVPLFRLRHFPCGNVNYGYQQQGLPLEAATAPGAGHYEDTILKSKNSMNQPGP

Molecule	effect on angiogenesis when peptide used alone [1]	effect on angiogenesis induced by FGF-2 [2]	effect on angiogenesis induced by HARP [4]	increase in the number of endothelial cells by comparison with Matrigel used by itself [1]	other results
CC(C)C[C@H](NC(=O)CNC(=O)[C@H](CS)NC(=O)[C@H](CC(=O)O)NC(=O)CNC(=O)[C@H](CO)NC(=O)[C@@H](NC(=O)[C@@H]1CCCN1C(=O)[C@@H](NC(=O)[C@H](CS)NC(=O)[C@@H](NC(=O)[C@H](CO)NC(=O)[C@H](Cc1c[nH]c2ccccc12)NC(=O)[C@H](CCC(N)=O)NC(=O)[C@H](Cc1c[nH]c2ccccc12)NC(=O)[C@H](CCC(=O)O)NC(=O)CNC(=O)[C@H](CS)NC(=O)[C@H](CC(=O)O)NC(=O)[C@@H](N)CO)C(C)C)C(C)C)[C@@H](C)O)C(=O)NCC(=O)N[C@H](C(=O)N[C@@H](CCCNC(=N)N)C(=O)N[C@@H](CCC(=O)O)C(=O)NCC(=O)N[C@H](C(=O)N[C@@H](CCCNC(=N)N)C(=O)N[C@H](C(=O)O)[C@@H](C)O)[C@@H](C)O)[C@@H](C)O [peptide 13-39] (H-SDCGEWQWSVCVPTSGDCGLGTREGTRT-OH; N-terminus and C-terminus assumed)	No significant effect	no effect	totally inhibit	–	inhibition of the HARP activity (induction of cell proliferation) [3]: 60%
CC(C)C[C@H](NC(=O)[C@H](C)NC(=O)[C@H](CCCNC(=N)N)NC(=O)[C@H](CCCCN)NC(=O)[C@H](CC(C)C)NC(=O)[C@H](CO)NC(=O)CNC(=O)[C@@H](NC(=O)[C@H](CCCNC(=N)N)NC(=O)[C@@H](NC(=O)[C@H](CCCCN)NC(=O)[C@H](CC(C)C)NC(=O)[C@H](C)NC(=O)[C@@H](NC(=O)[C@H](CC(N)=O)NC(=O)[C@H](CC(C)C)NC(=O)[C@H](CC(=O)O)NC(=O)[C@H](CS)NC(=O)[C@H](CCC(=O)O)NC(=O)CNC(=O)[C@H](Cc1c[nH]c2ccccc12)NC(=O)[C@H](C)NC(=O)[C@H](CCC(N)=O)NC(=O)[C@H](Cc1ccccc1)NC(=O)[C@H](CCC(N)=O)NC(=O)[C@H](Cc1ccc(O)cc1)NC(=O)[C@H](CCCCN)NC(=O)[C@H](CS)NC(=O)[C@H](CCC(=O)O)NC(=O)[C@H](C)N)[C@@H](C)O)[C@@H](C)O)[C@@H](C)O)C(=O)N[C@@H](Cc1c[nH]cn1)C(=O)N[C@@H](CC(N)=O)C(=O)N[C@@H](C)C(=O)O [peptide 65-97] (H-AECKYQFQAWGECDLNTALKTRTGSLKRALHNA-OH; N-terminus and C-terminus assumed)	No significant effect	no effect	totally inhibit	–	–
FGF-2: another angiogenic factor, used as control of the specificity of the inhibition	–	–	–	5.8 times	–
KLTKPKPQAESKKKKKEGKKQEKMLD (listed as Homo sapiens) [peptide 111-136, C-terminal peptide fragment of HARP, amino acids 111-136, acts on the ALK receptor]	–	–	–	–	rate of tumour growth, times less than in untreated mice ([5]; PC3 in nude mice): 4 times; mean size of the tumours smaller than in untreated mice ([5]; day 27): 80%; reduction in the intra-tumoral vessels [6]: 55%; mitogenic / angiogenic activity [7]: neither mitogenic n or angiogenic
B1	–	–	–	3 times	Kd [8]: 0.05 nM
